Assay results: patent publication US9453062B2, “Glucose dependent insulinotropic polypeptide analogs, pharmaceutical compositions and use thereof” (Beijing Hanmi Pharmaceutical Co., Ltd., priority 2011, dated 2016)
Like-named read-outs stand apart in the source and are kept apart here. Where a SMILES comes first, the peptide text is derived from it. Bridges are numbered along the chain shown (N, C = ends). [ ]: non-standard residue; d: D form. The star is where a group is joined. Phe(4-NO2) = N[C@@H](Cc1ccc([N+](=O)[O-])cc1)C(=O)O; Palmitoyl = CCCCCCCCCCCCCCCC(=O)*; Met(O) = CS(=O)CC[C@H](N)C(=O)O; Phg = N[C@H](C(=O)O)c1ccccc1; Nle = CCCC[C@H](N)C(=O)O; Aib = CC(C)(N)C(=O)O

Experiments:
hGLP-1R = biological target: T1, hGLP-1R (Homo sapiens, UniProt P43220); experiment: hGLP-1R-mediated cAMP induction assay in CHO cell line; type: cell-based;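 further: CHO cells expressing human GLP-1R, treated 30 min at 37 °C, intracellular cAMP measured by competitive fluorescent immunoassay and converted via a cAMP standard curve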
T1 construct: expressed in transfected cells; host or cells: CHO
T1 sequence (P43220 24-463): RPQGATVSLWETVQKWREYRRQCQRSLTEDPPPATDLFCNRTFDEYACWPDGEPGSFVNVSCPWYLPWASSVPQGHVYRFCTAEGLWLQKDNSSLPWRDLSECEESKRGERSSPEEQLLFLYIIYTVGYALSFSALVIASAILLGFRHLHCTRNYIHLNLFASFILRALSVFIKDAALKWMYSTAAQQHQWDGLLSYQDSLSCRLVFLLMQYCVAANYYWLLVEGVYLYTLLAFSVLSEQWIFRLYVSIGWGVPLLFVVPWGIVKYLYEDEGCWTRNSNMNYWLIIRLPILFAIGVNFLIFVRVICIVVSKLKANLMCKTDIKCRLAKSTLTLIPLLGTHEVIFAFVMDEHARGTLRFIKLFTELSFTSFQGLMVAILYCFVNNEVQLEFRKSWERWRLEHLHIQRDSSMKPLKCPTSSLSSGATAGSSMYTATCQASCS

hGIPR = biological target: T2, hGIPR (Homo sapiens, UniProt P48546); experiment: hGIPR-mediated cAMP induction assay in CHO cell line; type: cell-based
T2 construct: expressed in transfected cells; host or cells: CHO
T2 sequence (P48546 22-466): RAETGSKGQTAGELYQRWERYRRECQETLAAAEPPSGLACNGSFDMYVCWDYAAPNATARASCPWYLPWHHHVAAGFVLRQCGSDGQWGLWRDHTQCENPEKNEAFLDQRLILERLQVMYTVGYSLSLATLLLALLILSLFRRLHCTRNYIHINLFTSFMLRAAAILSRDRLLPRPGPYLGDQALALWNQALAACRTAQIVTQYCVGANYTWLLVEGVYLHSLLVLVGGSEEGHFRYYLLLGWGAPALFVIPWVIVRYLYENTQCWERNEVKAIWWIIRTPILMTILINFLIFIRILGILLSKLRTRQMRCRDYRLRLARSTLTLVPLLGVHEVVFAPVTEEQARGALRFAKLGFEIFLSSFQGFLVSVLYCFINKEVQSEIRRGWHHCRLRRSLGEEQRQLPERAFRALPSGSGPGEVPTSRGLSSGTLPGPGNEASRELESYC
Description: The cAMP in the sample or standard competes with horseradish peroxidase (HRP)-labeled cAMP conjugate for binding sites on the anti-cAMP antibodies. In the absence of cAMP, most of the HRP-cAMP conjugate is bound to the antibody. Increasing concentrations of cAMP competitively decrease the amount of bound conjugate, thus decreasing measured HRP activity.
Assay kit: CatchPoint™ Cyclic-AMP Fluorescent Assay Kit (Molecular Devices, Product # R8088)
Cell lines: CHO hGLP1R, CHO hGIPR
Cell seeding: CHO hGLP1R or CHO hGIPR cells: 10,000 cells/well/100 uL at 37° C. 5% CO2 overnight.
Gently aspirate off media and wash the cells with KRBG Buffer, 100 uL/well.
Incubate the plate for 10 min at room temperature. Then add the KRBG buffer with 3× final concentration of the tested samples (5-foled series diluted from 5,000 nM), 50 uL/well. Incubate the plate at 37° C. 5% CO2 for 30 min.
Add 50 uL of Lysis buffer to each well and put the plate on a shaker for 10 min.
Place 40 uL of samples and analyze in appropriate wells. And test the cAMP concentration in each sample by following the manufacture's instruction.
Detect the fluorescence signal at Ex: 490 nm and Em: 530 nm. Transfer the FI signal to cAMP concentration by the cAMP standard curve. The Dose-response curve and EC50 were obtained by logistic fitting of Origin 8.

GIP Receptor Relative Potency (hGIPR; Table 3, against native GIP)	Structure (SMILES)	EC50 (hGLP-1R; Table 3, CHO hGLP1R cells) [nM]	GLP-1 Receptor Relative Potency (hGLP-1R; Table 3, against native GLP-1)	EC50 (hGIPR; Table 3, CHO hGIPR cells) [nM]	EC50 (hGLP-1R) [nM]	further results
35.4	CC[C@H](C)[C@H](NC(=O)[C@H](Cc1ccccc1)NC(=O)[C@H](CCC(=O)O)NC(=O)[C@@H]1CCC(=O)NCCCC[C@H](NC(=O)[C@H](CCC(=O)O)NC(=O)[C@H](CCSC)NC(=O)[C@H](Cc2ccc(O)cc2)NC(=O)[C@@H](NC(=O)[C@H](CO)NC(=O)[C@H](Cc2ccc(O)cc2)NC(=O)[C@H](CC(=O)O)NC(=O)[C@H](CO)NC(=O)[C@@H](NC(=O)[C@H](Cc2ccccc2)NC(=O)[C@@H](NC(=O)CNC(=O)[C@H](CCC(=O)O)NC(=O)C(C)(C)NC(=O)[C@@H](N)Cc2ccc(O)cc2)[C@@H](C)O)[C@@H](C)O)[C@@H](C)CC)C(=O)N[C@@H](CCC(=O)O)C(=O)N[C@@H](C)C(=O)N[C@@H](C(C)C)C(=O)N1)C(=O)N[C@@H](C)C(=O)N[C@@H](Cc1c[nH]c2ccccc12)C(=O)N[C@@H](CC(C)C)C(=O)N[C@H](C(=O)N[C@@H](CCCCN)C(=O)NCC(N)=O)C(C)C [Compound 053-2] (H-Y[Aib]EGTFTSDYSIYMEKEAVEEFIAWLVKG-NH2; lactam 16-20; N-terminus assumed)	2.95	37	–	–	–
106.8	CC[C@H](C)[C@H](NC(=O)[C@H](Cc1ccccc1)NC(=O)[C@H](CCC(=O)O)NC(=O)[C@H](CCCNC(=N)N)NC(=O)[C@@H](NC(=O)[C@H](C)NC(=O)[C@H](CCC(=O)O)NC(=O)[C@H](CCCCN)NC(=O)[C@H](CCC(=O)O)NC(=O)[C@H](CCSC)NC(=O)[C@H](Cc1ccc(O)cc1)NC(=O)[C@@H](NC(=O)[C@H](CO)NC(=O)[C@H](Cc1ccc(O)cc1)NC(=O)[C@H](CC(=O)O)NC(=O)[C@H](CO)NC(=O)[C@@H](NC(=O)[C@H](Cc1ccccc1)NC(=O)[C@@H](NC(=O)CNC(=O)[C@H](CCC(=O)O)NC(=O)C(C)(C)NC(=O)[C@@H](N)Cc1ccc(O)cc1)[C@@H](C)O)[C@@H](C)O)[C@@H](C)CC)C(C)C)C(=O)N[C@@H](C)C(=O)N[C@@H](Cc1c[nH]c2ccccc12)C(=O)N[C@@H](CC(C)C)C(=O)N[C@H](C(=O)N[C@@H](CCCCN)C(=O)NCC(N)=O)C(C)C [Compounds 023] (H-Y[Aib]EGTFTSDYSIYMEKEAVREFIAWLVKG-NH2)	–	75	–	–	EC50 (hGLP-1R; Table 1, CHO/hGLP-1R cells, read-out: GLP-1R EC50): 1.28 nM; GLP-1R Relative Potency (hGLP-1R; Table 1, against native GLP-1): 75%; EC50 (hGIPR; Table 1, CHO/hGIPR cells, read-out: GIPR EC50): 0.088 nM; GIPR Relative Potency (hGIPR; Table 1, against native GIP): 106.8%
77.7	CC[C@H](C)[C@H](NC(=O)[C@H](CO)NC(=O)[C@H](Cc1ccc(O)cc1)NC(=O)[C@H](CC(=O)O)NC(=O)[C@H](CO)NC(=O)[C@@H](NC(=O)[C@H](Cc1ccccc1)NC(=O)[C@@H](NC(=O)CNC(=O)[C@H](CCC(=O)O)NC(=O)C(C)(C)NC(=O)[C@@H](N)Cc1ccc(O)cc1)[C@@H](C)O)[C@@H](C)O)C(=O)N[C@@H](Cc1ccc(O)cc1)C(=O)N[C@@H](CCSC)C(=O)N[C@@H](CCC(=O)O)C(=O)N[C@@H](CCCCN)C(=O)N[C@@H](CCC(=O)O)C(=O)N[C@@H](C)C(=O)N[C@H](C(=O)N[C@@H](CCCNC(=N)N)C(=O)N[C@@H](CCC(=O)O)C(=O)N[C@@H](Cc1ccccc1)C(=O)N[C@H](C(=O)N[C@@H](CCC(=O)O)C(=O)N[C@@H](Cc1c[nH]c2ccccc12)C(=O)N[C@@H](CC(C)C)C(=O)N[C@H](C(=O)N[C@@H](CCCCN)C(=O)NCC(N)=O)C(C)C)[C@@H](C)CC)C(C)C [Compound 054-1] (H-Y[Aib]EGTFTSDYSIYMEKEAVREFIEWLVKG-NH2)	2.99	–	0.27	–	–
–	CC[C@H](C)[C@H](NC(=O)[C@H](CO)NC(=O)[C@H](Cc1ccc(O)cc1)NC(=O)[C@H](CC(=O)O)NC(=O)[C@H](CO)NC(=O)[C@@H](NC(=O)[C@H](Cc1ccccc1)NC(=O)[C@@H](NC(=O)CNC(=O)[C@H](CCC(=O)O)NC(=O)C(C)(C)NC(=O)[C@@H](N)Cc1ccc(O)cc1)[C@@H](C)O)[C@@H](C)O)C(=O)N[C@@H](Cc1ccc([N+](=O)[O-])cc1)C(=O)N[C@@H](CC[S+](C)[O-])C(=O)N[C@@H](CCC(=O)O)C(=O)N[C@@H](CCCCN)C(=O)N[C@H](C(=O)N[C@@H](Cc1c[nH]cn1)C(=O)N[C@@H](CCC(N)=O)C(=O)N[C@@H](CCC(N)=O)C(=O)N[C@@H](CC(=O)O)C(=O)N[C@@H](Cc1ccccc1)C(=O)N[C@H](C(=O)N[C@@H](CC(N)=O)C(=O)N[C@@H](Cc1c[nH]c2ccccc12)C(=O)N[C@@H](CC(C)C)C(=O)N[C@@H](CC(C)C)C(=O)N[C@@H](C)C(=O)N[C@@H](CCC(N)=O)C(N)=O)C(C)C)[C@@H](C)CC (some centres unmarked) [Compound 005] (H-Y[Aib]EGTFTSDYSI[Phe(4-NO2)][Met(O)]EKIHQQDFVNWLLAQ-NH2)	–	–	–	> 2000	–
–	CCCC[C@H](NC(=O)[C@H](C)NC(=O)[C@@H](NC(=O)[C@H](CO)NC(=O)[C@H](Cc1ccc(O)cc1)NC(=O)[C@H](CC(=O)O)NC(=O)[C@H](CO)NC(=O)[C@@H](NC(=O)[C@H](Cc1ccccc1)NC(=O)[C@@H](NC(=O)CNC(=O)[C@H](CCC(=O)O)NC(=O)C(C)(C)NC(=O)[C@@H](N)Cc1ccc(O)cc1)[C@@H](C)O)[C@@H](C)CC)[C@@H](C)CC)C(=O)N[C@@H](CCC(=O)O)C(=O)N[C@@H](CCCCN)C(=O)N[C@H](C(=O)N[C@@H](Cc1c[nH]cn1)C(=O)N[C@@H](CCC(N)=O)C(=O)N[C@@H](CCC(N)=O)C(=O)N[C@@H](CC(=O)O)C(=O)N[C@@H](Cc1ccccc1)C(=O)N[C@H](C(=O)N[C@@H](CC(N)=O)C(=O)N[C@@H](Cc1c[nH]c2ccccc12)C(=O)N[C@@H](CC(C)C)C(=O)N[C@@H](CC(C)C)C(=O)N[C@@H](C)C(=O)N[C@@H](CCC(N)=O)C(N)=O)C(C)C)[C@@H](C)CC [Compound 010] (H-Y[Aib]EGTFISDYSIA[Nle]EKIHQQDFVNWLLAQ-NH2; N-terminus assumed)	–	–	–	> 2000	–
–	CCCC[C@H](NC(=O)[C@@H](NC(=O)[C@@H](NC(=O)[C@H](CO)NC(=O)[C@H](Cc1ccc(O)cc1)NC(=O)[C@H](CC(=O)O)NC(=O)[C@H](CO)NC(=O)[C@@H](NC(=O)[C@H](Cc1ccccc1)NC(=O)[C@@H](NC(=O)CNC(=O)[C@H](CCC(=O)O)NC(=O)C(C)(C)NC(=O)[C@@H](N)Cc1ccc(O)cc1)[C@@H](C)O)[C@@H](C)O)[C@@H](C)CC)c1ccccc1)C(=O)N[C@@H](CCC(=O)O)C(=O)N[C@@H](CCCCN)C(=O)N[C@H](C(=O)N[C@@H](Cc1c[nH]cn1)C(=O)N[C@@H](CCC(N)=O)C(=O)N[C@@H](CCC(N)=O)C(=O)N[C@@H](CC(=O)O)C(=O)N[C@@H](Cc1ccccc1)C(=O)N[C@H](C(=O)N[C@@H](CC(N)=O)C(=O)N[C@@H](Cc1c[nH]c2ccccc12)C(=O)N[C@@H](CC(C)C)C(=O)N[C@@H](CC(C)C)C(=O)N[C@@H](C)C(=O)N[C@@H](CCC(N)=O)C(N)=O)C(C)C)[C@@H](C)CC [Compound 009] (H-Y[Aib]EGTFTSDYSI[Phg][Nle]EKIHQQDFVNWLLAQ-NH2; N-terminus assumed)	–	–	–	> 2000	–

Structure (SMILES)	GIP Receptor Relative Potency (hGIPR; Table 3, against native GIP)	EC50 (hGLP-1R; Table 3, CHO hGLP1R cells) [nM]	GLP-1 Receptor Relative Potency (hGLP-1R; Table 3, against native GLP-1)	EC50 (hGIPR; Table 3, CHO hGIPR cells) [nM]	EC50 (hGLP-1R) [nM]	further results
CC[C@H](C)[C@H](NC(=O)[C@H](Cc1ccccc1)NC(=O)[C@H](CCC(=O)O)NC(=O)[C@H](CCCNC(=N)N)NC(=O)[C@@H](NC(=O)[C@H](C)NC(=O)[C@H](CCC(=O)O)NC(=O)[C@H](CCCCN)NC(=O)[C@H](CCC(=O)O)NC(=O)[C@H](CCSC)NC(=O)[C@H](Cc1ccc(O)cc1)NC(=O)[C@@H](NC(=O)[C@H](CO)NC(=O)[C@H](Cc1ccc(O)cc1)NC(=O)[C@H](CC(=O)O)NC(=O)[C@H](CO)NC(=O)[C@@H](NC(=O)[C@H](Cc1ccccc1)NC(=O)[C@@H](NC(=O)CNC(=O)[C@H](CCC(=O)O)NC(=O)C(C)(C)NC(=O)[C@@H](N)Cc1ccc(O)cc1)[C@@H](C)O)[C@@H](C)O)[C@@H](C)CC)C(C)C)C(=O)N[C@@H](C)C(=O)N[C@@H](Cc1c[nH]c2ccccc12)C(=O)N[C@@H](CC(C)C)C(=O)N[C@H](C(=O)N[C@@H](CCCCN)C(=O)NCC(=O)NCC(=O)N1CCC[C@H]1C(=O)N[C@@H](CO)C(=O)N[C@@H](CO)C(=O)NCC(=O)N[C@@H](C)C(=O)N1CCC[C@H]1C(=O)N1CCC[C@H]1C(=O)N1CCC[C@H]1C(=O)N[C@@H](CO)C(=O)N[C@@H](CCCCNC(=O)CCCC[C@@H]1SC[C@@H]2NC(=O)N[C@@H]21)C(N)=O)C(C)C [Compound 074]	39.5	1.05	90.7	0.43	–	–
CCCCCCCCCCCCCCCC(=O)NCCCC[C@H](NC(=O)[C@H](CO)NC(=O)[C@@H]1CCCN1C(=O)[C@@H]1CCCN1C(=O)[C@@H]1CCCN1C(=O)[C@H](C)NC(=O)CNC(=O)[C@H](CO)NC(=O)[C@H](CO)NC(=O)[C@@H]1CCCN1C(=O)CNC(=O)CNC(=O)[C@H](CCCCN)NC(=O)[C@@H](NC(=O)[C@H](CC(C)C)NC(=O)[C@H](Cc1c[nH]c2ccccc12)NC(=O)[C@@H]1CCC(=O)NCCCC[C@H](NC(=O)[C@@H](NC(=O)[C@H](C)NC(=O)[C@H](CCC(=O)O)NC(=O)[C@H](CCCCN)NC(=O)[C@H](CCC(=O)O)NC(=O)[C@H](CCSC)NC(=O)[C@H](Cc2ccc(O)cc2)NC(=O)[C@@H](NC(=O)[C@H](CO)NC(=O)[C@H](Cc2ccc(O)cc2)NC(=O)[C@H](CC(=O)O)NC(=O)[C@H](CO)NC(=O)[C@@H](NC(=O)[C@H](Cc2ccccc2)NC(=O)[C@@H](NC(=O)CNC(=O)[C@H](CCC(=O)O)NC(=O)C(C)(C)NC(=O)[C@@H](N)Cc2ccc(O)cc2)[C@@H](C)O)[C@@H](C)O)[C@@H](C)CC)C(C)C)C(=O)N[C@@H](CCC(=O)O)C(=O)N[C@@H](Cc2ccccc2)C(=O)N[C@@H]([C@@H](C)CC)C(=O)N1)C(C)C)C(N)=O [Compound 101] (H-Y[Aib]EGTFTSDYSIYMEKEAVKEFIEWLVKGGPSSGAPPPSK(Palmitoyl)-NH2; lactam 20-24)	328.6	0.056	628.6	0.021	–	–
